Reference: patent US20210244738A1, “COMPOSITIONS AND METHODS FOR SUPPRESSING NONSENSE MUTATIONS” (The UAB Research Foundation, priority 2018, published 2021)

Experiments:
[1] = test system: Idua mRNA in wildtype MEFs; assay: Steady state Idua mRNA by qPCR in wildtype MEFs; assay type: cell-based, mouse; conditions: 48 hours, compared to the vehicle alone control
Method: Total RNA was isolated from MEFs using the Ambion RiboPure kit and DNase-treated using the Turbo DNA-Free kit. Polyadenylated RNA was reverse transcribed into cDNA in a 50 μl reaction containing […] of total RNA; 0.5 mg/ml oligo dT; 1.2 mM dNTPs; 40 U RNasin (Promega); […] of 5×AMV RT buffer and 40 U AMV reverse transcriptase (Promega), RT reactions were incubated at 42° C. for 1.5 hours, and then heat inactivated at 65° C. for 15 minutes. The cDNA was ethanol precipitated and subjected to qPCR in a 25 μl reaction containing 12.5 μl iQ SYBR Green Supermix (Bio-Rad); 0.2 mM of each forward and reverse primer; and […] of cDNA. […]
Melt curve analysis was initially performed with each primer set to verify that only one gene product was generated from the PCR reactions. […] The average quantification cycle (Cq) was determined for each mRNA, and mRNA quantification was performed using the Livak (DDCq) method (Livak K J, et al. (2001) Methods. 25(4):402-8), where Gapdh and Rpl13a served as normalization controls.

[2] = test system: W134X NanoLuc RT/NMD reporter; assay: W134X NanoLuc readthrough/NMD reporter screen in Fischer rat thyroid cells; assay type: cell-based; conditions: NanoLuc activity; for +G418 Fold-Increase (Rel. to G418): drug conc. 60 μM combined with G418 100 μg/ml
Method: Equal numbers of the W134X NanoLuc RT/NMD monoclonal reporter cells were seeded into 96-well plates and cultured without zeocin for 24 hours. The cells were then treated with screening compounds for 24-hours. Dimethylsulfoxide served as the vehicle in which compounds were administered at a final concentration of 60 μM or 30 μg/ml. After treatment, the cells were washed once with phosphate-buffered saline, followed by incubation with passive lysis buffer (PLB) (Promega, E1941) for 20 minutes at room temperature. NanLuc activity in cell lysates was assayed with the Nano-Glo Luciferase Assay System (Promega, N1120) using the GloMax® Discover System (Promega). NanoLuc activity was normalized to the lysate protein concentration, which was determined by the Bio-Rad Protein Assay Reagent (Bio-Rad, 500-006).
In order to identify new compounds with the ability to suppress PTCs by inducing readthrough, inhibiting NMD, or both, a NanoLuc reporter that harbors a point mutation at codon W134 was utilized, resulting in the introduction of a UGA termination codon (W134X) into the NanoLuc cDNA. This NanoLuc construct was fused in-frame to a human β-globin construct containing intronic regions, which allows the W134X PTC to elicit exon-junction-complex dependent NMD (FIG. 1A). This NanoLuc readthrough/NMD reporter was stably expressed in Fischer rat thyroid cells, which were used to screen a 10,000 low molecular weight compound library for compounds that increase NanoLuc activity in treated cells relative to a vehicle control.

[3] = test system: Idua-KO MEFs; assay: GAG levels in Idua-KO MEFs; assay type: cell-based, mouse; conditions: 48 hours (FIG. 7B)
Method: MEFs were grown to 50% confluency and then treated with screening agents for 48 hours.

[4] = test system: Idua-KO MEFs; assay: α-L-iduronidase activity in Idua-KO MEFs; assay type: cell-based, mouse; conditions: 48 hours (FIG. 7A)
Method: MEFs were seeded into 6-well culture dishes at a density of 1.5×10^5 cells per well. MEFs were grown to 50% confluency and then treated with screening agents for 48 hours. MEFs were subsequently washed with PBS and lysed in Mammalian Protein Extraction Reagent (Pierce) containing a protease inhibitor cocktail (Roche). The total protein concentration was determined using the Bio-Rad Protein Assay, Approximately 75 micrograms of total lysate protein was incubated in a 70-microliter reaction containing 0.12 mM 4-methyl-umbelliferyl-α-L-iduronide (Gold Biotech) and 0.42 mg/ml of D-saccharic acid 1,4-lactone monohydrate (a β-glucuronidase inhibitor) (Sigma 50375) in 130 mM sodium formate buffer, pH 3.5. The reaction was incubated for 72 hours at 37° C. and then quenched with 300 μl of glycine buffer, pH 10.8. 200 μl of each sample was transferred to a 96-well plate (Corning 3631) and fluorescence was measured at an excitation=365 nm and an emission=450 nm using the GloMax® Discover System (Promega). Free acid 4-methylumbelliferone (FMU) (Sigma M1381) in glycine buffer was used to generate a standard curve.

[5] = Hirawat et al. 2004, 2007; cited from earlier work
[6] = test system: cystic fibrosis patients who carry a PTC; conditions: Kerem et al. 2014; cited from earlier work

COc1cc2nc(N3CCN(C(=O)C4COc5ccccc5O4)CC3)nc(N)c2cc1OC (stereo not shown) [Doxazocin]
change of Idua mRNA levels [1]: slightly increased Idua mRNA levels | +G418 Fold-Increase (Rel. to G418) [2]: 10.3 fold | Drug Alone Fold-Increase (Rel. to Basal) ([2]; drug conc. 60 μM, 24 h): 4.1 fold

COc1cc2c(cc1OC)CN(CCc1ccc(NC(=O)c3cccc4c(=O)c5cccc(OC)c5[nH]c34)cc1)CC2 [Elacridar]
+G418 Fold-Increase (Rel. to G418) [2]: 6.0 fold | Drug Alone Fold-Increase (Rel. to Basal) ([2]; drug conc. 60 μM, 24 h): 4.8 fold

CN[C@@H]1[C@@H](O)[C@@H](O[C@@H]2[C@@H](O)[C@H](O[C@H]3O[C@H]([C@@H](C)O)[C@@H](O)[C@H](O)[C@H]3N)[C@@H](N)C[C@H]2N)OC[C@]1(C)O [G418 alone]
Drug Alone Fold-Increase (Rel. to Basal) ([2]; readthrough control at 100 μg/ml): 24 fold

CCCn1c(=O)c2[nH]c(-c3cnn(Cc4cccc(C(F)(F)F)c4)c3)nc2n(CC)c1=O [GS-6201]
+G418 Fold-Increase (Rel. to G418) [2]: 13.6 fold | Drug Alone Fold-Increase (Rel. to Basal) ([2]; drug conc. 60 μM, 24 h): 10.3 fold

Cc1ccc(NC(=O)c2ccc(CN3CCN(C)CC3)cc2)cc1Nc1nccc(-c2cccnc2)n1 [Imantinib]
+G418 Fold-Increase (Rel. to G418) [2]: 19.1 fold | Drug Alone Fold-Increase (Rel. to Basal) ([2]; drug conc. 60 μM, 24 h): 4.6 fold

C=CCN1CC[C@]23c4c5ccc(O)c4O[C@H]2/C(=N/N=C2\CC[C@@]4(O)[C@H]6Cc7ccc(O)c8c7[C@@]4(CCN6CC=C)[C@H]2O8)CC[C@@]3(O)[C@H]1C5 [Naloxonazine]
+G418 Fold-Increase (Rel. to G418) [2]: 5.8 fold | Drug Alone Fold-Increase (Rel. to Basal) ([2]; drug conc. 60 μM, 24 h): 2.7 fold

CN1CC(=O)N2[C@H](c3ccc4c(c3)OCO4)c3[nH]c4ccccc4c3C[C@@H]2C1=O [Tadalafil]
+G418 Fold-Increase (Rel. to G418) [2]: 6.3 fold | Drug Alone Fold-Increase (Rel. to Basal) ([2]; drug conc. 60 μM, 24 h): 2.3 fold

COc1cc2c(N3CCN(C(=O)Nc4ccc(OC(C)C)cc4)CC3)ncnc2cc1OCCCN1CCCCC1 [Tandutinib]
+G418 Fold-Increase (Rel. to G418) [2]: 7.8 fold | Drug Alone Fold-Increase (Rel. to Basal) ([2]; drug conc. 60 μM, 24 h): 3.8 fold

Nc1nc(N)c2nc(-c3ccccc3)c(N)nc2n1 [Triamterene, 2,4,7-triamino-6-phenylpteridine]
change of Idua mRNA levels [1]: did not significantly change Idua mRNA levels | reduction in GAGs [3]: little to no reduction in GAGs | +G418 Fold-Increase (Rel. to G418) [2]: 15.7 fold | Drug Alone Fold-Increase (Rel. to Basal) ([2]; drug conc. 60 μM, 24 h): 13.4 fold | α-L-iduronidase activity [4]: slight increases in α-L-iduronidase

O=C(O)c1cccc(-c2noc(-c3ccccc3F)n2)c1 [ataluren]
toxicity / safety for clinical use [5]: non-toxic and safe for clinical use | lung function [6]: did not significantly improve lung function

Verteporfin
+G418 Fold-Increase (Rel. to G418) [2]: 7.1 fold | Drug Alone Fold-Increase (Rel. to Basal) ([2]; drug conc. 60 μM, 24 h): 4.3 fold
